{"source": "patent US20060078875A1", "about": "“Genetic selection of small molecule modulators of protein-protein interactions” (The Penn State Research Foundation, priority 2004, published 2006)", "key": {"avian ATIC (AICAR Tfase)": {"biological_target": "T1, avian ATIC (AICAR Tfase) (Gallus gallus, UniProt P31335)", "T1 sequence (P31335 1-593)": "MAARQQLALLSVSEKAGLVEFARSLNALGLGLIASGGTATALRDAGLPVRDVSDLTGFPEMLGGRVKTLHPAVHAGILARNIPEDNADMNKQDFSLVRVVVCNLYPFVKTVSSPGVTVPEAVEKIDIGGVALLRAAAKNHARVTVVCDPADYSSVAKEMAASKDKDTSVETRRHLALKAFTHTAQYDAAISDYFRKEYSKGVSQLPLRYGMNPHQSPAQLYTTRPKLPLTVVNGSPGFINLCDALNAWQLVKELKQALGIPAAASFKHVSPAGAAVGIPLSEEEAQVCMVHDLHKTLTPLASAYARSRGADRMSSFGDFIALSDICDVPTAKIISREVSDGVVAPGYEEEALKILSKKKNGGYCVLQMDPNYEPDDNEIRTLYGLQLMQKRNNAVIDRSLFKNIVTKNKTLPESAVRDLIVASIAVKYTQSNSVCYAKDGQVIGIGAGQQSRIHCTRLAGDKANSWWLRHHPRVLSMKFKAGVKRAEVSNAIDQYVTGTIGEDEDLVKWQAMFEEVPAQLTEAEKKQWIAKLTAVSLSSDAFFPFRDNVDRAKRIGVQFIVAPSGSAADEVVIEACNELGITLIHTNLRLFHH", "experiment": "AICAR Tfase progress curve analysis (DynaFit)", "format": "biochemical", "design": "6× histidine tag (N); made in house", "details": "progress curves", "quoted_text": "The inhibitors were assayed under two conditions, limiting the amount of each substrate. In one case 168 nM of ATIC, 100 μM of 10-f-THF and 20 μM of AICAR was used (limiting AICAR), and in the second case 168 nM of ATIC, 40 μM of 10-f-THF and 100 μM of AICAR was used (limiting 10-f-THF). The reactions were monitored as outlined above, for 50 minutes. […] The data was fitted to the standard inhibition models (non-competitive, uncompetitive, mixed and competitive) and a model in which the inhibitor binds a monomer of ATIC preventing dimerization.\nThe progress curves were fitted to a model in which the inhibitor binds a single protomer of ATIC thereby preventing dimerization, as well as the standard inhibition models (non-competitive, uncompetitive, mixed and competitive) using DynaFit [Kuzmic (1996)]."}, "ATIC homodimer": {"biological_target": "T2, ATIC homodimer (Gallus gallus, UniProt P31335)", "T2 construct": "expressed in transfected cells; host or cells: E. coli RTHS strain with the ATIC fusion integrated on the chromosome", "T2 sequence (P31335 1-593)": "T1 sequence (P31335 1-593)", "experiment": "ATIC RTHS ranking by spotting serial dilutions on selective media", "format": "cell-based", "details": "cyclic peptides in order of biological activity (1 = most active)", "procedure": "ATIC was cloned as a fusion with the bacteriophage 434 repressor DNA binding domain (into pTHCP16, FIG. 1B) such that expression of the repressor-ATIC fusion placed under control of an isopropyl β-D-thiogalactoside (IPTG) inducible promoter. […] In order to improve selection conditions, a new RTHS strain was constructed by integrating the ATIC fusion onto the chromosome. The level of IPTG giving optimal repression was determined to be 50 μM by β-galactosidase assays.\nThe first SICLOPPS library transformed into the selection strain encoded a hexapeptide with five random residues and a cysteine nucleophile. Approximately 10^7 transformants were plated onto histidine-free minimal media supplemented with arabinose, (inducer for SICLOPPS) 3-amino-1,2,4-triazole (3-AT, competitive inhibitor of HIS3 product) and kanamycin at a density of 10^6 per plate (100×15 mm). The plates were incubated until colonies were readily visible (approximately one in 10^5). A second library encoding an octapeptide with five random residues and an invariable SGW motif was also tested (not shown). Around 200 colonies were picked and screened for arabinose dependent growth advantage and IPTG dependent inhibition of growth to eliminate false positives. The expected phenotype was further confirmed by isolating and retransforming the selected SICLOPPS plasmids into the selection strain. The 14 remaining cyclic peptides were then ranked for activity by spotting serial dilutions of the corresponding cells onto selective media, allowing the conferred growth advantage to be compared at each dilution level.\nSICLOPPS libraries were transformed into E. coli strains containing integrated reporter and repressor constructs. Transformants were washed with minimal media A and plated on minimal media A supplemented with 13 μM L-(+)-arabinose, 2.5 mM 3-amino-1,2,4-triazole, 25 μM kanamycin and 50 μM IPTG. After incubation at 37° C. for 3-4 days, surviving colonies were restreaked onto the same media with and without arabinose. Plasmids from selected strains whose growth depended on the presence of arabinose were retransformed into the original selection strain and checked for phenotype retention. The variable insert regions on SICLOPPS plasmids were PCR-amplified, and their DNA sequence determined."}, "[1]": {"biological_target": "T3, ribonucleotide reductase large subunit (mR1) (Mus musculus, UniProt P07742)", "T3 construct": "made in house; host or cells: E. coli BL21(λDE3) Rosetta, pET28a-MR1", "T3 sequence (P07742 1-792)": "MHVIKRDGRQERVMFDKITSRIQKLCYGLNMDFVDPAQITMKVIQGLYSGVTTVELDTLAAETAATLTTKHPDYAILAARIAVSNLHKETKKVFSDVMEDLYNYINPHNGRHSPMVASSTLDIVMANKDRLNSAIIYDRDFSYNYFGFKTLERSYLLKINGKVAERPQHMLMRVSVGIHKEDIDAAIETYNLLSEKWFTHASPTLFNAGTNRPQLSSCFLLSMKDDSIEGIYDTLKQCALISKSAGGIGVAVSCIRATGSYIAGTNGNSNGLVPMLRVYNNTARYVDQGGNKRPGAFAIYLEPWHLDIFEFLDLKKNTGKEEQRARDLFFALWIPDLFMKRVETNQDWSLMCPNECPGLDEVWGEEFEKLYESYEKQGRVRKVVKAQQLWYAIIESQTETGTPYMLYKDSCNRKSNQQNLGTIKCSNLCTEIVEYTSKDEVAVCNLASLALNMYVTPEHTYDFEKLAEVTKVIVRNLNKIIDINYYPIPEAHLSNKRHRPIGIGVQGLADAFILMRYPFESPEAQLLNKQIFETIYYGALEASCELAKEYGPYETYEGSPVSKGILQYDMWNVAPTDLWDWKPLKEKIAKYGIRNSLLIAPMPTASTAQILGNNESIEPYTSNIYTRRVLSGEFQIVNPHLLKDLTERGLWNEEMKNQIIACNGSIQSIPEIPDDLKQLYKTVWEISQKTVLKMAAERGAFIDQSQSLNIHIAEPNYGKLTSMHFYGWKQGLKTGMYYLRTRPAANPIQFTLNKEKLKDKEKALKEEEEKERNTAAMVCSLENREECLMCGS", "experiment": "Immobilized peptide binding/competition ELISA with mR1", "design": "species or system murine", "details": "peptide immobilized via cysteine on maleimide plates; His6-tagged mR1", "procedure": "(§1) FIG. 8B provides the results of an immobilized P8 ELISA.\n(§2) Two variations of solid phase binding assays were used for analyzing the binding of peptide inhibitors to ribonucleotide reductase subunits: i) protein competition ELISA where peptides were competing with mR1 for binding to immobilized mR2, ii) binding and competition ELISA with covalently immobilized ligands. In general, the solid phase assays were performed in microtiter plates (MaxiSorp, Nunc) or strip units (Reacti-Bind™ Maleimide Activated Clear Strip Plates, Pierce) involving continuous agitation in Junior Orbit Shaker (Lab-line Instruments) at medium speed during all of the incubation steps. Sample volumes were 100 μL, unless specified otherwise. Following coating, blocking step was conducted by incubating pre-loaded wells with 5% bovine serum albumin in PBS for 1 h at room temperature. Wash procedures between any two successive incubations involved three washes with 200 μL of 0.5% Tween-20 in PBS (PBST), with the second wash involving a 5 min incubation. Detection of His-tagged proteins was performed with Ni·NTA-HRP conjugate (Qiagen) according to the manufacturer instructions.\n(§3) Peptides (200 nmol per well) in 10% DMF/50 mM Tris·HCl (pH 7.5) with 1 mM TCEP were reacted for 2 h at room temperature with maleimide-derivatized polystyrene wells. The unreacted sites were blocked by incubating wells with 5 μM cysteine in 50 mM Tris·HCl (pH 7.5) for 30 min. Following washing and blocking steps, the wells were incubated with His-tagged mR1 or mR2 in the presence or absence of inhibitors. The retained protein was detected via Ni·NTA-HRP conjugate.\n(§4) To determine the mechanism of action of the four identified sequences an alternative assay format was devised (FIG. 8A), where a peptide with a residual activity in its immobilized form can serve as a specific ligand for receptor capture in both binding and competition ELISA. The success of such an assay relies on both efficient peptide immobilization strategy and sufficient level of affinity, uncompromised by this display strategy. The peptide immobilization becomes feasible through implementation of a cysteine, a nucleophile used in splicing, as a universal chemoselective handle allowing covalent attachment strategy through a suitable electrophile. Chemoselective attachment of such peptides on appropriately derivatized surfaces should both display the small molecules for detection with a suitable protein receptor and allow binding site competition analysis, not unlike in a traditional immunosorbent format."}, "[2]": {"biological_target": "T4, ribonucleotide reductase small subunit (mR2) (Mus musculus, UniProt P11157)", "T4 construct": "made in house; host or cells: E. coli BL21(λDE3), pET28a-MR2", "T4 sequence (P11157 1-390)": "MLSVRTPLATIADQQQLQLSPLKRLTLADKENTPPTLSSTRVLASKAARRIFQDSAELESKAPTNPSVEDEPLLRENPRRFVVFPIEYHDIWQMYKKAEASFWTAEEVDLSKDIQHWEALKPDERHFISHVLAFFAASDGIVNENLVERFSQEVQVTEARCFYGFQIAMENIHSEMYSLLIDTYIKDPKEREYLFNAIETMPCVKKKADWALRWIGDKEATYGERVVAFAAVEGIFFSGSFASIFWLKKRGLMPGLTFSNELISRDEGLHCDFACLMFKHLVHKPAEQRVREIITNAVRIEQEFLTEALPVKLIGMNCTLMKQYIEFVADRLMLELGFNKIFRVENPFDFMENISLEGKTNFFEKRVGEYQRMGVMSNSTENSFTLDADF", "experiment": "Immobilized c-RR130 binding/competition ELISA with mR2", "design": "species or system murine", "details": "increasing protein concentrations", "procedure": "as §1, §2, §3, §4"}, "His6-mR2": {"biological_target": "T5, His6-mR2 (Mus musculus, UniProt P11157)", "T5 construct": "made in house; host or cells: E. coli BL21(λDE3), pET28a-MR2", "T5 sequence (P11157 1-390)": "T4 sequence (P11157 1-390)", "experiment": "Quenching of intrinsic mR2 tryptophan fluorescence", "format": "binding, murine", "details": "PBS pH 7.0", "procedure": "The equilibrium dissociation constant, KD, for His-tagged mR2·cRR130 complex was measured by the quenching of intrinsic protein fluorescence as a function of ligand concentration using a Flouromax-2 (SA Instruments) spectrofluorometer. His6-mR2 was added to 1× phosphate buffered saline (PBS) buffer at pH 7.0, and enzyme concentrations were kept below the KD being measured and were typically 1 μM. The small subunit mR2 contains six tryptophan residues whose combined fluorescence was monitored at 350 nm with excitation at 295 nm. Fluorescence data were collected as a function of added cRR130. The data was corrected for ligand background fluorescence and were fit to a hyperbolic equation to generate the KD value."}, "HIV-1 protease": {"biological_target": "T6, HIV-1 protease (Human immunodeficiency virus type 1 group M subtype B, UniProt P04585, D513N)", "T6 construct": "HIV-1 protease was PCR amplified from pET-HIV-1; expressed in transfected cells; host or cells: E. coli strain SNS118 (integrated fusion)", "experiment": "RTHS β-galactosidase assay, HIV-1 protease fusion in strain SNS118", "format": "cell-based", "details": "peptide co-expressed with HIV-1 protease fusion", "procedure": "FIG. 4 has two graphs (A and B) of β-galactosidase assays showing the effect of linear peptide inhibitors on the oligomeric state of HIV-1 protease and ribonucleotide reductase.\npHIV5. HIV-1 protease was PCR amplified from pET-HIV-1 [Ido et al. (1991) J. Biol. Chem. 266:24359-24366] and cloned into SalI and BamHI sites of pTHCP16. The catalytic aspartate (D25) was mutated to asparagine using 3-primer PCR [Michael (1994) Biotechniques 16:410-412], and a S(G)4S linker was added at the SalI site.\nOverlapping oligonucleotides encoding MTVSYEL (methionine plus hexapaptide control inhibitor) (SEQ ID:17) [Schramm et al. (1996) Antiviral Res. 30:155-170] were cloned into EcoRI and SphI sites on arabinose expression plasmid pBAD18.\nTowards this goal, both enzyme complexes were probed with known linear peptidic inhibitors. These peptides are a C-terminal hexapeptide (FIG. 4A, pHIV16) for HIV protease that inhibits the essential β-sheet interactions [Schramm al. (1996) Antiviral Res. 30:155-170], and a heptapeptide for ribonucleotide reductase (pTHCP35, FIG. 4B) that competes with binding between subunits mR1 and mR2 [Yang et al. (1990) FEBS Lett. 272:61-64]."}}, "note": "Peptide text beside a SMILES is read from it."}
{"compound": "CC(C)[C@@H]1NC(=O)[C@H](CC(N)=O)NC(=O)[C@H](Cc2ccccc2)NC(=O)[C@H](Cc2ccc(O)cc2)NC(=O)[C@H](CCCNC(=N)N)NC(=O)[C@H](CS)NC1=O", "note": "[c-1a, R Y F N V C] (cyclo(RYFNVC))", "values": [{"measurement": "Best-fitting inhibition model with respect to 10-f-THF", "setting": "avian ATIC (AICAR Tfase)", "result": "inhibition of enzyme dimerization"}, {"measurement": "Best-fitting inhibition model with respect to AICAR", "setting": "avian ATIC (AICAR Tfase)", "result": "non-competitive inhibition model"}, {"measurement": "Activity Rank", "setting": "ATIC homodimer", "result": 1}]}
{"compound": "CC(C)[C@@H]1NC(=O)[C@H](CC(N)=O)NC(=O)[C@H](Cc2ccc(O)cc2)NC(=O)[C@H](Cc2ccc(O)cc2)NC(=O)[C@H](CCCNC(=N)N)NC(=O)[C@H](CS)NC1=O", "note": "[c-RR130] (cyclo(CRYYNV))", "values": [{"measurement": "Affinity of immobilized peptide toward mR1", "setting": "[1]", "result": "immune"}, {"measurement": "Capture of His6-tagged mR2 by immobilized peptide", "setting": "[2]", "result": "selectively captured"}, {"measurement": "Kd", "setting": "His6-mR2", "result": 53, "unit": "µM"}]}
{"compound": "CC(C)[C@@H]1NC(=O)[C@H](Cc2ccc(O)cc2)NC(=O)[C@H](CCCNC(=N)N)NC(=O)[C@H](Cc2c[nH]cn2)NC(=O)[C@H](CS)NC(=O)[C@H](Cc2ccccc2)NC1=O", "note": "[c-RR133] (cyclo(CHRYVF))", "values": [{"measurement": "Kd", "setting": "His6-mR2", "result": 133, "unit": "µM"}]}
{"compound": "MTVSYEL [pHIV16]", "values": [{"measurement": "Repression of the lacZ reporter", "setting": "HIV-1 protease", "result": "relieved repression"}]}
